Legend:
[1] = in vitro; settings: human
[2] = system: SARS-CoV-2 WA1 (USA-WA1/2020); assay: Antiviral immunofluorescence assay, SARS-CoV-2 WA1 in Calu-3 cells; type: cell-based; settings: for EC50: Severe acute respiratory syndrome coronavirus 2, Calu-3, WA1, Calu-3 cells, read-out: EC50; for EC50 / EC90: immunofluorescence, 44 hpi, mean ± SD; for EC90: Severe acute respiratory syndrome coronavirus 2, WA1, Calu-3 cells; for fold lower EC50 compared to V2043: Calu-3 and Huh7.5 cells; for fold more active than RDV: Calu-3 cells, based on EC50; for fold more active than 116-N1, the parent nucleoside of VV116: own EC50 compared with 116-N1 of ref 15
[3] = system: SARS-CoV-2 (WA-1); assay: Antiviral immunofluorescence assay, SARS-CoV-2 WA1 in Vero-TMPRSS2 cells; type: cell-based; settings: for EC50: Severe acute respiratory syndrome coronavirus 2, Vero/TMPRSS2; for EC90: Severe acute respiratory syndrome coronavirus 2, WA-1, Vero-TMPRSS2 cells, immunofluorescence, 38 hpi
[4] = in vitro
Method: Cells were seeded as per SARS-CoV-2 infection studies in opaque walled 96-well cell culture plates and incubated overnight for Huh7.5 and Vero-TMPRSS2 cells and for an additional 24h for Calu-3 cells. Compounds or controls were added at the indicated concentrations. Cells were incubated for 48h for Huh7.5 cells, 40–44h for Calu-3 cells, or 30–32h for Vero-TMPRSS2 cells at 37 °C and 5% CO2, an equal volume of CellTiter-Glo reagent (Cat. #G7570, Promega) or CellTiter-Glo 2.0 reagent (Cat. #G9241, Promega) was added and mixed, and luminescence was recorded on a Veritas Microplate Luminometer (Turner BioSystems) according to manufacturer recommendations. Percent viability was calculated compared to DMSO controls, and CC50 values were calculated using Prism 9.
Calu-3 cells were treated for 44h (A), Huh7.5 cells were treated for 48h (B), and Vero-
TMPRSS2 cells were treated for 38h (C) as in infection assays for each cell type. Cell viability
was measured by CellTiter-Glo assay and reported as % cell viability relative to DMSO controls.
Best fit curves calculated in Graphpad Prism 9 were used
to compute cytotoxic concentration 50% (CC50) values in Tables 1-3.

[5] = system: SARS-CoV-2 (WA-1); assay: Antiviral immunofluorescence assay, SARS-CoV-2 WA1 in Huh7.5 cells; type: cell-based
[6] = in vitro; settings: human; remark: listed apart in the source
[7] = in vitro; settings: human; remark: listed apart in the source
[8] = system: SARS-CoV-2 (WA-1); assay: Antiviral immunofluorescence assay, SARS-CoV-2 WA1 in human pluripotent stem cell-derived lung cells; type: cell-based; settings: Severe acute respiratory syndrome coronavirus 2, WA-1, PSC-lung cells (ALDA 31616 and H9), 24 hpi
[9] = Severe acute respiratory syndrome coronavirus 2, WA-1, Huh7.5 cells, immunofluorescence, 48 hpi, read-out: EC50
[10] = Severe acute respiratory syndrome coronavirus 2, WA-1, Huh7.5 cells, immunofluorescence, 48 hpi, read-out: EC90
[11] = Severe acute respiratory syndrome coronavirus 2, Huh7.5

Compound	CC50 at 44 h [1]	EC50 [2]	EC90 [2]	EC50 [3]	EC90 [3]	CC50 ([4]; chlorocebus aethiops)	EC50 [5, 9]	EC90 [5, 10]	CC50 at 48 h [6]	CC50 at 24 h [7]	EC50 [8]	EC90 [8]	CC50 ([4]; African green monkey)	fold lower EC50 compared to V2043 [2]	fold more active than RDV [2]	fold more active than 116-N1, the parent nucleoside of VV116 [2]	EC50 [5, 11]	EC90 [5, 11]
CCCCCCCCCCCCCCCCCCOC[C@@H](COP(=O)(O)OC[C@H]1O[C@@](C#N)(c2ccc3c(N)ncnn23)[C@H](O)[C@@H]1O)OCc1ccccc1 [Compound 9b, ((2R,3S,4R,5R)-5-(4-Aminopyrrolo[2,1-f][1,2,4]triazin-7-yl)-5-cyano-3,4-dihydroxytetrahydrofuran-2-yl)methyl ((S)-2-(benzyloxy)-3-(octadecyloxy)propyl) hydrogen phosphate]	93.4 µM	0.16 ± 0.024 µM	0.625 ± 0.195 µM															
CCCCCCCCCCCCCCCCCCOCC(COP(=O)(O)OC[C@H]1O[C@@](C#N)(c2ccc3c(N)ncnn23)[C@H](O)[C@@H]1O)OCc1ccccc1 (stereo partly drawn) [Compound 9c, ((2R,3S,4R,5R)-5-(4-aminopyrrolo[2,1-f][1,2,4]triazin-7-yl)-5-cyano-3,4-dihydroxytetrahydrofuran-2-yl)methyl ((R,S)-2-(benzyloxy)-3-(octadecyloxy)propyl) hydrogen phosphate]	92.1 µM	0.172 ± 0.078 µM	1.07 ± 1.04 µM	0.238 ± 0.074 µM	0.613 ± 0.084 µM	> 100 µM	0.175 ± 0.12 µM	0.519 ± 0.256 µM	64.6 µM									
CCCCCCCCCCCCCCCCCCOC[C@H](COP(=O)(O)OC[C@H]1O[C@@](C#N)(c2ccc3c(N)ncnn23)[C@H](O)[C@@H]1O)OCc1cccc(F)c1 [Compound 9d, ((2R,3S,4R,5R)-5-(4-Aminopyrrolo[2,1-f][1,2,4]triazin-7-yl)-5-cyano-3,4-dihydroxytetrahydrofuran-2-yl)methyl ((R)-2-((3-fluorobenzyl)oxy)-3-(octadecyloxy)propyl) hydrogen phosphate]	94.7 µM	0.224 ± 0.129 µM	0.506 ± 0.204 µM	0.271 ± 0.022 µM	0.629 ± 0.061 µM	> 100 µM	0.191 ± 0.077 µM	0.488 ± 0.199 µM	75 µM									
CCCCCCCCCCCCCCCCCCOC[C@H](COP(=O)(O)OC[C@H]1O[C@@](C#N)(c2ccc3c(N)ncnn23)[C@H](O)[C@@H]1O)OCc1cccc(C(F)(F)F)c1 [Compound 9e, ((2R,3S,4R,5R)-5-(4-Aminopyrrolo[2,1-f][1,2,4]triazin-7-yl)-5-cyano-3,4-dihydroxytetrahydrofuran-2-yl)methyl ((R)-3-(octadecyloxy)-2-((3-(trifluoromethyl)benzyl)oxy)propyl) hydrogen phosphate]	66.9 µM	0.16 ± 0.093 µM	0.316 ± 0.083 µM															
CCCCCCCCCCCCCCCCCCOC[C@H](COP(=O)(O)OC[C@H]1O[C@@](C#N)(c2ccc3c(N)ncnn23)[C@H](O)[C@@H]1O)OCc1ccc(C(F)(F)F)cc1 [Compound 9f, ((2R,3S,4R,5R)-5-(4-Aminopyrrolo[2,1-f][1,2,4]triazin-7-yl)-5-cyano-3,4-dihydroxytetrahydrofuran-2-yl)methyl ((R)-3-(octadecyloxy)-2-((4-(trifluoromethyl)benzyl)oxy)propyl) hydrogen phosphate]	90.2 µM	0.177 ± 0.012 µM	0.408 ± 0.181 µM															
CCCCCCCCCCCCCCCCCCOC[C@H](COP(=O)(O)OC[C@H]1O[C@@](C#N)(c2ccc3c(N)ncnn23)[C@H](O)[C@@H]1O)OCc1ccc(OC)c(F)c1 [Compound 9g, ((2R,3S,4R,5R)-5-(4-Aminopyrrolo[2,1-f][1,2,4]triazin-7-yl)-5-cyano-3,4-dihydroxytetrahydrofuran-2-yl)methyl ((R)-2-((3-fluoro-4-methoxybenzyl)oxy)-3-(octadecyloxy)propyl) hydrogen phosphate]	50.5 µM	0.077 ± 0.027 µM	0.145 ± 0.054 µM	0.178 ± 0.057 µM	0.294 ± 0.062 µM	> 100 µM	0.06 ± 0.037 µM	0.212 ± 0.086 µM	70.1 µM	> 20 µM	0.167 ± 0.055 µM	0.348 ± 0.121 µM						
CCCCCCCCCCCCCCCCCCOC[C@H](COP(=O)(O)OC[C@H]1O[C@@](C#N)(c2ccc3c(N)ncnn23)[C@H](O)[C@@H]1O)OCCCCCCCC [Compound 9h, ((2R,3S,4R,5R)-5-(4-Aminopyrrolo[2,1-f][1,2,4]triazin-7-yl)-5-cyano-3,4-dihydroxytetrahydrofuran-2-yl)methyl ((R)-3-(octadecyloxy)-2-(octyloxy)propyl) hydrogen phosphate]	> 100 µM	0.391 ± 0.039 µM	2.5 ± 1.24 µM	0.775 ± 0.245 µM	1.79 ± 0.14 µM	> 100 µM	0.564 ± 0.252 µM	3.36 ± 2.86 µM	> 100 µM									
CCCCCCCCCCCCCCCCCCOC[C@H](COP(=O)(O)OC[C@H]1O[C@@](C#N)(c2ccc3c(N)ncnn23)[C@H](O)[C@@H]1O)OCCC1CCCCC1 [Compound 9i, ((2R,3S,4R,5R)-5-(4-Aminopyrrolo[2,1-f][1,2,4]triazin-7-yl)-5-cyano-3,4-dihydroxytetrahydrofuran-2-yl)methyl ((R)-2-(2-cyclohexylethoxy)-3-(octadecyloxy)propyl) hydrogen phosphate]	98.7 µM	0.144 ± 0.02 µM	1.83 ± 1.04 µM	0.296 ± 0.01 µM	0.582 ± 0.014 µM		0.092 ± 0.026 µM	1.31 ± 0.31 µM	69.8 µM				> 100 µM					
CCCCCCCCCCCCCCCCCCOC[C@H](COP(=O)(O)OC[C@H]1O[C@@](C#N)(c2ccc3c(N)ncnn23)[C@H](O)[C@@H]1O)OCc1ccc(C#N)cc1 [Compound 9j, ((2R,3S,4R,5R)-5-(4-Aminopyrrolo[2,1-f][1,2,4]triazin-7-yl)-5-cyano-3,4-dihydroxytetrahydrofuran-2-yl)methyl ((R)-2-((4-cyanobenzyl)oxy)-3-(octadecyloxy)propyl) hydrogen phosphate]	60.2 µM	0.043 ± 0.013 µM	0.082 ± 0.022 µM				0.024 ± 0.002 µM	0.07 ± 0.01 µM	47.2 µM					3–5.5 fold	5.3 fold	11.5 fold		
CCCCCCCCCCCCCCCCCCOC[C@H](COP(=O)(O)OC[C@H]1O[C@@](C#N)(c2ccc3c(N)ncnn23)[C@H](O)[C@@H]1O)OCc1cccc(C#N)c1 [Compound 9k, ((2R,3S,4R,5R)-5-(4-Aminopyrrolo[2,1-f][1,2,4]triazin-7-yl)-5-cyano-3,4-dihydroxytetrahydrofuran-2-yl)methyl ((R)-2-((3-cyanobenzyl)oxy)-3-(octadecyloxy)propyl) hydrogen phosphate]	61.6 µM	0.034 ± 0.007 µM	0.065 ± 0.036 µM				0.024 ± 0.006 µM	0.077 ± 0.017 µM	49.6 µM					3–5.5 fold	6.7 fold	9.1 fold		
CCCCCCCCCCCCCCCCCCOC[C@H](COP(=O)(O)OC[C@H]1O[C@@](C#N)(c2ccc3c(N)ncnn23)[C@H](O)[C@@H]1O)OCc1ccccc1C#N [Compound 9l, ((2R,3S,4R,5R)-5-(4-Aminopyrrolo[2,1-f][1,2,4]triazin-7-yl)-5-cyano-3,4-dihydroxytetrahydrofuran-2-yl)methyl ((R)-2-((2-cyanobenzyl)oxy)-3-(octadecyloxy)propyl) hydrogen phosphate]	82.8 µM	0.091 ± 0.025 µM	0.186 ± 0.047 µM				0.102 ± 0.017 µM	0.281 ± 0.03 µM	> 100 µM									
CCCCCCCCCCCCCCCCOC[C@H](COP(=O)(O)OC[C@H]1O[C@@](C#N)(c2ccc3c(N)ncnn23)[C@H](O)[C@@H]1O)OCc1ccccc1 [Compound 11a, ((2R,3S,4R,5R)-5-(4-Aminopyrrolo[2,1-f][1,2,4]triazin-7-yl)-5-cyano-3,4-dihydroxytetrahydrofuran-2-yl)methyl ((R)-2-(benzyloxy)-3-(hexadecyloxy)propyl) hydrogen phosphate]	88.7 µM	0.095 ± 0.012 µM	0.716 ± 0.27 µM	0.402 ± 0.084 µM	0.798 ± 0.154 µM	> 100 µM	0.131 ± 0.066 µM	0.268 ± 0.221 µM	> 100 µM									
CCCCCCCCCCCCCCCCOC[C@H](COP(=O)(O)OC[C@H]1O[C@@](C#N)(c2ccc3c(N)ncnn23)[C@H](O)[C@@H]1O)OCc1ccc(OC)c(F)c1 [Compound 11g, ((2R,3S,4R,5R)-5-(4-Aminopyrrolo[2,1-f][1,2,4]triazin-7-yl)-5-cyano-3,4-dihydroxytetrahydrofuran-2-yl)methyl ((R)-2-((3-fluoro-4-methoxybenzyl)oxy)-3-(hexadecyloxy)propyl) hydrogen phosphate]	75.7 µM	0.051 ± 0.018 µM	0.24 ± 0.131 µM	0.406 ± 0.087 µM	0.858 ± 0.249 µM	> 100 µM	0.05 ± 0.022 µM	0.103 ± 0.047 µM	59 µM	> 20 µM	0.13 ± 0.056 µM	0.267 ± 0.019 µM						
CCCCCCCCCCCCCCOC[C@H](COP(=O)(O)OC[C@H]1O[C@@](C#N)(c2ccc3c(N)ncnn23)[C@H](O)[C@@H]1O)OCc1ccccc1 [Compound 12a, ((2R,3S,4R,5R)-5-(4-Aminopyrrolo[2,1-f][1,2,4]triazin-7-yl)-5-cyano-3,4-dihydroxytetrahydrofuran-2-yl)methyl ((R)-2-(benzyloxy)-3-(tetradecyloxy)propyl) hydrogen phosphate]	> 100 µM	0.213 ± 0.097 µM	0.575 ± 0.251 µM	0.909 ± 0.027 µM	1.63 ± 0.12 µM	> 100 µM			> 100 µM								0.157 ± 0.4 µM	0.479 ± 0.019 µM

— publication PMC10108740 (Journal of Medicinal Chemistry, 2023)
